Experimental data taken from paper PMC6150365, “Simultaneous Determination of Seven Components in Rat Plasma by the UPLC-MS/MS Method and Application of Pharmacokinetic Studies to SimiaoYong’an Decoction” (Molecules : A Journal of Synthetic Chemistry and Natural …, 2017).

Experiment: Pharmacokinetic study in rats after oral administration of SYD extract and its single and combined TCM extracts (UPLC-MS/MS of plasma)
Conditions: male, Sprague-Dawley, rat, plasma, po, n = 6; for AUC(0-inf) / Cmax / MRT last / MRT inf / Tmax / AUC(0-t): rat plasma; for MRT last: MRT(0–t); for MRT inf: MRT(0–∞); for half-life: t1/2, rat plasma
[1] = 2.14 g·kg^−1 (extract), oral LJ + GU extract
[2] = 2.15 g/kg, oral LJ extract 2.15 g/kg
[3] = 3.29 g·kg^−1 (extract), oral LJ + AS extract
[4] = 3.29 g·kg^−1 extract, oral LJ + AS extract
[5] = 4.01 g·kg^−1 (extract), oral LJ + AS + GU extract
[6] = 4.5 g·kg^−1 (extract), oral LJ + SN extract
[7] = 4.5 g·kg^−1 extract, oral LJ + SN extract
[8] = 4.73 g/kg, oral LJ + SN + GU extract 4.73 g/kg
[9] = 5.43 g/kg, oral LJ + SN + AS extract 5.43 g/kg
[10] = 8.25 g/kg, oral SYD extract 8.25 g/kg

Work on COC(=O)C1=CO[C@@H](O[C@@H]2O[C@H](CO)[C@@H](O)[C@H](O)[C@H]2O)[C@@H]2[C@@H](C)[C@@H](O)C[C@H]12 [Loganin, loganin] yielded an AUC(0-inf) [1] of 5510 ± 2000 ng·h/mL, a Cmax [1] of 690 ± 440 ng/mL and an MRT last [1] of 8.17 ± 0.62 h. For the same compound, the MRT inf [1] was 88.5 ± 42.1 h, the Tmax [1] was 1.25 ± 0.59 h and the half-life [1] was 8.07 ± 3.65 h. The AUC(0-t) (2.14 g·kg^−1 extract, oral LJ + GU extract) was 1600 ± 70 ng·h/mL, the AUC(0-t) [2] was 1520 ± 110 ng·h/mL and the AUC(0-inf) [2] was 1670 ± 340 ng·h/mL. The Cmax [2] was 1140 ± 520 ng/mL, the MRT last [2] was 3.65 ± 1.03 h and the MRT inf [2] was 6.74 ± 6 h. It also gave a Tmax [2] of 1.25 ± 0.59 h, a half-life [2] of 6.71 ± 4.19 h and a Cmax [3] of 660 ± 350 ng/mL. The MRT last [3] was 7.93 ± 1.33 h, the MRT inf [3] was 80.9 ± 41.5 h and the Tmax [3] was 1.33 ± 0.52 h. The half-life [3] was 7.89 ± 2.42 h, the AUC(0-t) [4] was 1720 ± 310 ng·h/mL and the AUC(0-inf) [4] was 5400 ± 1940 ng·h/mL. It also gave an AUC(0-t) [5] of 1660 ± 120 ng·h/mL, an AUC(0-inf) [5] of 5350 ± 1940 ng·h/mL and a Cmax [5] of 540 ± 170 ng/mL. It also gave an MRT last [5] of 8.06 ± 0.78 h, an MRT inf [5] of 81.9 ± 41.3 h and a Tmax [5] of 1.5 ± 0.45 h. The half-life [5] was 7.91 ± 2.17 h, the MRT last [6] was 7.79 ± 1.38 h and the MRT inf [6] was 80 ± 40.2 h. For the same compound, the Tmax [6] was 1.54 ± 0.56 h, the half-life [6] was 9.39 ± 2.6 h and the AUC(0-t) [7] was 1790 ± 440 ng·h/mL. It also gave an AUC(0-inf) [7] of 5470 ± 2060 ng·h/mL, a Cmax [7] of 680 ± 100 ng/mL and an AUC(0-t) [8] of 1840 ± 450 ng·h/mL. For the same compound, the AUC(0-inf) [8] was 5510 ± 2020 ng·h/mL, the Cmax [8] was 720 ± 450 ng/mL and the MRT last [8] was 7.72 ± 1.48 h. The MRT inf [8] was 79.3 ± 40.8 h, the Tmax [8] was 1.5 ± 0.45 h and the half-life [8] was 6.83 ± 2.11 h. It also gave an AUC(0-t) [9] of 1160 ± 780 ng·h/mL, an AUC(0-inf) [9] of 1180 ± 770 ng·h/mL and a Cmax [9] of 660 ± 483 ng/mL. The MRT last [9] was 2.5 ± 0.7 h, the MRT inf [9] was 4.07 ± 3.93 h and the Tmax [9] was 1.5 ± 0.45 h. For the same compound, the half-life [9] was 6.25 ± 4.29 h, the AUC(0-t) [10] was 1980 ± 1380 ng·h/mL and the AUC(0-inf) [10] was 2170 ± 1400 ng·h/mL. The Cmax [10] was 770 ± 460 ng/mL, the MRT last [10] was 4.71 ± 1.34 h and the MRT inf [10] was 8.87 ± 8.1 h. For the same compound, the half-life [10] was 7.45 ± 3.39 h.
